Laboratory results from US20230085307A1, “PYRIDAZINONE COMPOUND AND HERBICIDE” (NISSAN CHEMICAL CORPORATION, priority 2019, published 2023).

How the values were obtained:
[1] = system: directly sowed rice; assay: Test Example 3: effect on crop by foliage application, Wagner pot (Table 18, symbol b); format: in vivo; conditions: amount of applied herbicide 320 g/ha
Experimental: [Test Example 3] Herbicidal Effect Test by Foliage Application After alluvial soil was placed into 1/10000 are of Wagner pot, water was poured and mixed to form a submerged condition having a water depth of 0.1 cm to 0.5 cm. Seeds of barnyard grass, Chinese sprangletop, rice flat sedge, and rice were sowed and the pot was placed in a greenhouse at 25° C. to 30° C. for growth of the plants. After 14-day growth of the plants, the emulsion agent of the compound of the present invention prepared according to Formulation Example 2 was diluted with water so as to achieve a predetermined herbicide amount, and the diluted emulsion agent was uniformly applied to a foliage part with a small-sized spray. Three weeks after the herbicide application, the effect of the herbicide on each plant was evaluated according to the criteria of Test Example 1.

[2] = system: rice flat sedge; assay: Test Example 3: herbicidal effect by foliage application, Wagner pot (Table 18, symbol E); format: in vivo, rice flat sedge (Cyperus iria); conditions: amount of applied herbicide 320 g/ha
Outline: (§1)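 Plants were sown in alluvial soil held under 0.1–0.5 cm standing water and grown 14 days in a greenhouse at 25–30 °C. An emulsifiable formulation, water-diluted to the set dose, was then sprayed onto the foliage, and effects were scored three weeks later using previously defined criteria.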

[3] = system: lambsquarters; assay: Test Example 4: herbicidal effect by soil treatment (Table 19, symbol O); format: in vivo, lambsquarters (Chenopodium album); conditions: amount of applied herbicide 320 g/ha
Outline: (§2)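 Applied as a water-diluted emulsion, the compound was sprayed onto soil covering newly sown seeds. Evaluation came three weeks after application, in a greenhouse held at 25° C. to 30° C.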

[4] = system: velvetleaf; assay: Test Example 4: herbicidal effect by soil treatment (Table 19, symbol M); format: in vivo, velvetleaf (Abutilon theophrasti); conditions: amount of applied herbicide 320 g/ha
Outline: as §2

[5] = system: barnyard grass; assay: Test Example 4: herbicidal effect by soil treatment (Table 19, symbol H); format: in vivo, barnyard grass (Echinochloa crus-galli); conditions: amount of applied herbicide 320 g/ha
Outline: as §2

[6] = system: green foxtail; assay: Test Example 4: herbicidal effect by soil treatment (Table 19, symbol G); format: in vivo, green foxtail (Setaria viridis); conditions: amount of applied herbicide 320 g/ha
Outline: as §2

[7] = system: redroot pigweed; assay: Test Example 4: herbicidal effect by soil treatment (Table 19, symbol N); format: in vivo, redroot pigweed (Amaranthus retroflexus); conditions: amount of applied herbicide 320 g/ha
Outline: as §2

[8] = system: beet; assay: Test Example 4: effect on crop by soil treatment (Table 19, symbol f); format: in vivo; conditions: amount of applied herbicide 320 g/ha
From the text: (§3) [Test Example 4] Herbicidal Effect Test by Soil Treatment
(§4) Sterilized diluvial soil was placed in a plastic box having a length of 21 cm, a width of 13 cm, and a depth of 7 cm. The seeds of each of southern crabgrass, green foxtail, barnyard grass, wild oat, blackgrass, Italian ryegrass, windgrass, velvetleaf, redroot pigweed, lambsquarters, chickweed, false cleavers, persian speedwell, corn, soybean, rice, wheat, beet, and rapeseed were sowed in a spot-like manner and covered with the soil having a thickness of about 1.5 cm. Subsequently, the emulsion agent of the compound of the present invention prepared according to Formulation Example 2 was diluted with water so as to achieve a predetermined herbicide amount, and the diluted emulsion agent was uniformly applied to the surface of the soil with a small-sized spray. The plastic box was placed in a greenhouse at 25° C. to 30° C. for growth of the plants. Three weeks after the herbicide application, the effect of the herbicide on each plant was evaluated according to the criteria of Test Example 1.

[9] = system: Italian ryegrass; assay: Test Example 4: herbicidal effect by soil treatment (Table 19, symbol K); format: in vivo, Italian ryegrass (Lolium multiflorum); conditions: amount of applied herbicide 320 g/ha
Outline: as §2

[10] = system: Chinese sprangletop; assay: Test Example 3: herbicidal effect by foliage application, Wagner pot (Table 18, symbol D); format: in vivo, chinese sprangletop (Leptochloa chinensis); conditions: amount of applied herbicide 320 g/ha
Outline: as §1

[11] = system: wheat; assay: Test Example 4: effect on crop by soil treatment (Table 19, symbol e); format: in vivo; conditions: amount of applied herbicide 320 g/ha
From the text: as §3, §4

[12] = system: barnyard grass; assay: Test Example 3: herbicidal effect by foliage application, Wagner pot (Table 18, symbol H); format: in vivo, barnyard grass (Echinochloa crus-galli); conditions: amount of applied herbicide 320 g/ha
Outline: as §1

[13] = system: windgrass; assay: Test Example 4: herbicidal effect by soil treatment (Table 19, symbol L); format: in vivo, windgrass (Apera spica-venti); conditions: amount of applied herbicide 320 g/ha
Outline: as §2

[14] = system: corn; assay: Test Example 4: effect on crop by soil treatment (Table 19, symbol c); format: in vivo; conditions: amount of applied herbicide 320 g/ha
From the text: as §3, §4

[15] = system: blackgrass; assay: Test Example 4: herbicidal effect by soil treatment (Table 19, symbol J); format: in vivo, blackgrass (Alopecurus myosuroides); conditions: amount of applied herbicide 320 g/ha
Outline: as §2

[16] = system: southern crabgrass; assay: Test Example 4: herbicidal effect by soil treatment (Table 19, symbol F); format: in vivo, southern crabgrass (Digitaria ciliaris); conditions: amount of applied herbicide 320 g/ha
Outline: as §2

[17] = system: rapeseed; assay: Test Example 4: effect on crop by soil treatment (Table 19, symbol g); format: in vivo; conditions: amount of applied herbicide 320 g/ha
From the text: as §3, §4

[18] = system: soybean; assay: Test Example 4: effect on crop by soil treatment (Table 19, symbol d); format: in vivo; conditions: amount of applied herbicide 320 g/ha
From the text: as §3, §4

[19] = system: wild oat; assay: Test Example 4: herbicidal effect by soil treatment (Table 19, symbol I); format: in vivo, wild oat (Avena fatua); conditions: amount of applied herbicide 320 g/ha
Outline: as §2

## COc1ccccc1-c1sc2ccc(SC(F)(F)F)cc2c1-c1c(O)c(C)nn(C)c1=O [Compound No. 2-378, 5-hydroxy-4-(2-(2-methoxyphenyl)-5-((trifluoromethyl)thio)benzo[b]thiophen-3-yl)-2,6-di methylpyridazin-3(2H)-one]
[1]
  effect on crop b: directly sowed rice: 0 (Herbicidal rate of 5% or less (almost no effect))
[2]
  herbicidal effect on E: rice flat sedge: 3 (Herbicidal rate of 40% or more and less than 70%)
[3]
  herbicidal effect, O: lambsquarters: 2 (Herbicidal rate of 20% or more and less than 40%)
[4]
  herbicidal effect, M: velvetleaf: 0 (Herbicidal rate of 5% or less (almost no effect))
[5]
  herbicidal effect, H: barnyard grass: 0 (Herbicidal rate of 5% or less (almost no effect))
[6]
  herbicidal effect, G: green foxtail: 0 (Herbicidal rate of 5% or less (almost no effect))
[7]
  herbicidal effect, N: redroot pigweed: 4 (Herbicidal rate of 70% or more and less than 90%)
[8]
  effect on crop, f: beet: 0 (Herbicidal rate of 5% or less (almost no effect))
[9]
  herbicidal effect, K: Italian ryegrass: 0 (Herbicidal rate of 5% or less (almost no effect))
[10]
  herbicidal effect on D: Chinese sprangletop: 5 (Herbicidal rate of 90% or more (almost completely withered))
other
  melting point: 183 to 186 °C
[11]
  effect on crop, e: wheat: 0 (Herbicidal rate of 5% or less (almost no effect))
[12]
  herbicidal effect on H: barnyard grass: 5 (Herbicidal rate of 90% or more (almost completely withered))
[13]
  herbicidal effect, L: windgrass: 0 (Herbicidal rate of 5% or less (almost no effect))
[14]
  effect on crop, c: corn: 0 (Herbicidal rate of 5% or less (almost no effect))
[15]
  herbicidal effect, J: blackgrass: 0 (Herbicidal rate of 5% or less (almost no effect))
[16]
  herbicidal effect, F: southern crabgrass: 0 (Herbicidal rate of 5% or less (almost no effect))
[17]
  effect on crop, g: rapeseed: 0 (Herbicidal rate of 5% or less (almost no effect))
[18]
  effect on crop, d: soybean: 0 (Herbicidal rate of 5% or less (almost no effect))
[19]
  herbicidal effect, I: wild oat: 0 (Herbicidal rate of 5% or less (almost no effect))
